For 15 compounds, IC50 results are on record in patent US8163778B2 (Hoffmann-LA Roche Inc., priority 2007, dated 2012).

As a reminder, the IC50 is the point on the concentration scale where inhibition reaches its midpoint.

This experiment concerns the target T1, human liver FBPase (Homo sapiens, UniProt P09467).
T1 construct: made in house; host or cells: E. coli
T1 sequence (P09467 2-338 limits assumed): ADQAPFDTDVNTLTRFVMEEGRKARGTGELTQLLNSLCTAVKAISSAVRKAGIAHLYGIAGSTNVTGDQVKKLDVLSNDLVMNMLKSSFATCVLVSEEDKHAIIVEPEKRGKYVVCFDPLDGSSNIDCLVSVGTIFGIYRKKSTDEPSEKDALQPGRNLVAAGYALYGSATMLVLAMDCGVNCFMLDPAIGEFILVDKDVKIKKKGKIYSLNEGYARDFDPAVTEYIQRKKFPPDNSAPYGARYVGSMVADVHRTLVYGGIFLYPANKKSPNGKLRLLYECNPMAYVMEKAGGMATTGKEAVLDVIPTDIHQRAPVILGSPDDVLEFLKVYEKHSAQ
Nature of the experiment: FBPase assay (malachite green phosphate release). The experiment is classed as biochemical. The following applies: recombinant human liver FBPase, 50 μM fructose-1,6-bisphosphate. Put shortly:
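Recombinant human liver FBPase (E. coli-expressed, heat-treated, purified) reacted with 50 μM fructose-1,6-bisphosphate in pH 7.2 HEPES, 2 mM MgCl2, 1% DMSO, 50 min at room temperature. Released phosphate quantified with malachite green/ammonium molybdate reagent at 620 nm.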
For `COCCc1sc(S(=O)(=O)NC(=O)Nc2cc(C(N)=NO)cc(N)n2)cc1C` [Compound 108, 2-Amino-N′-hydroxy-6-[({[5-(2-methoxyethyl)-4-methyl-2-thienyl]sulfonyl}carbamoyl)amino]pyridine-4-carboximidamide], the IC50 stood at 16000 nM.

Take `CNC(=O)Nc1cc(-c2noc(C)n2)cc(NC(=O)NS(=O)(=O)c2cc(C)c(CCOC)s2)n1` [Compound 109, 5-(2-Methoxyethyl)-4-methyl-N-({6-[(methylcarbamoyl)amino]-4-(5-methyl-1,2,4-oxadiazol-3-yl)pyridin-2-yl}carbamoyl)thiophene-2-sulfonamide]: the IC50 is 1870 nM.

Take `COCCc1sc(S(=O)(=O)NC(=O)Nc2cc(-c3noc(C)n3)cc(N)n2)cc1C` [Compound 110, N-{[6-Amino-4-(5-methyl-1,2,4-oxadiazol-3-yl)pyridin-2-yl]carbamoyl}-5-(2-methoxyethyl)-4-methylthiophene-2-sulfonamide]: the half-inhibitory concentration (IC50) was found to be 16400 nM.

Take `CC(=O)OCCc1sc(S(=O)(=O)NC(=O)Nc2cc(C(F)(F)F)cc(C)n2)cc1C` [Compound 111, 2-{3-methyl-5-[({[6-methyl-4-(trifluoromethyl)pyridin-2-yl]carbamoyl}amino)sulfonyl]-2-thienyl}ethyl acetate]: the IC50 worked out at 345 nM.

Consider `COCCc1sc(S(=O)(=O)NC(=O)Nc2cc(SC)cc(C(N)=O)n2)cc1C` [Compound 112, 6-[({[5-(2-Methoxyethyl)-4-methyl-2-thienyl]sulfonyl}carbamoyl)amino]-4-(methylthio)pyridine-2-carboxamide], for which the IC50 worked out at 800 nM.

Turning to `CNC(=O)c1cc(SC)cc(NC(=O)NS(=O)(=O)c2cc(C)c(CCOC)s2)n1` [Compound 113, 6-[({[5-(2-Methoxyethyl)-4-methyl-2-thienyl]sulfonyl}carbamoyl)amino]-N-methyl-4-(methylthio)pyridine-2-carboxamide], the 50% inhibitory concentration (IC50) was found to be 840 nM.

Take `Cc1cc(C(F)(F)F)cc(NC(=O)NS(=O)(=O)c2cc(C)c(CCO)s2)n1` [Compound 114, 5-(2-Hydroxyethyl)-4-methyl-N-{[6-methyl-4-(trifluoromethyl)pyridin-2-yl]carbamoyl}thiophene-2-sulfonamide]: the 50% inhibitory concentration (IC50) is 515 nM.

Take `COCCc1sc(S(=O)(=O)NC(=O)Nc2cc(SC)cc(C(N)=NO)n2)cc1C` [Compound 115, N′-Hydroxy-6-[({[5-(2-methoxyethyl)-4-methyl-2-thienyl]sulfonyl}carbamoyl)amino]-4-(methylthio)pyridine-2-carboximidamide]: the concentration for half-maximal inhibition (IC50) was 2780 nM.

For the compound `COCCc1sc(S(=O)(=O)NC(=O)Nc2cc(OC)cc(-c3noc(C)n3)n2)cc1C` [Compound 116], the IC50 was found to be 1480 nM.

Regarding `COCCc1sc(S(=O)(=O)NC(=O)Nc2cc(SC)cc(-c3noc(C)n3)n2)cc1C` [Compound 117, 5-(2-methoxyethyl)-4-methyl-N-{[6-(5-methyl-1,2,4-oxadiazol-3-yl)-4-(methylthio)pyridin-2-yl]carbamoyl}thiophene-2-sulfonamide], the half-inhibitory concentration (IC50) was 1630 nM.

As for `COCCc1sc(S(=O)(=O)NC(=O)Nc2cc(OC)cc(C(=O)OC)n2)cc1C` [Compound 118, Methyl-6-[({[5-(2-methoxyethyl)-4-methyl-2-thienyl]sulfonyl}carbamoyl)amino]-4-(methoxy)pyridine-2-carboxylate], the half-maximal inhibitory concentration (IC50) was determined as 2300 nM.

As to `COCCc1sc(S(=O)(=O)NC(=O)Nc2cc(OC)cc(C(N)=O)n2)cc1C` [Compound 119, 6-[({[5-(2-Methoxyethyl)-4-methyl-2-thienyl]sulfonyl}carbamoyl)amino]-4-(methoxy)pyridine-2-carboxamide], the IC50 worked out at 4800 nM.

On to `Cc1cc(C(F)(F)F)cc(NC(=O)NS(=O)(=O)c2csc(C)c2)n1` [Compound 120, 5-Methyl-N-{[6-methyl-4-(trifluoromethyl)pyridin-2-yl]carbamoyl}thiophene-3-sulfonamide], for which the IC50 was found to be 831 nM.

For the compound `Cc1cc(C(F)(F)F)cc(NC(=O)NS(=O)(=O)c2ccc(C)s2)n1` [Compound 121, 5-Methyl-N-{[6-methyl-4-(trifluoromethyl)pyridin-2-yl]carbamoyl}thiophene-2-sulfonamide], the IC50 turned out to be 1170 nM.

As to `Cc1csc(S(=O)(=O)NC(=O)Nc2cc(C(F)(F)F)cc(C)n2)c1` [Compound 122, 4-Methyl-N-{[6-methyl-4-(trifluoromethyl)pyridin-2-yl]carbamoyl}thiophene-2-sulfonamide], the half-maximal inhibitory concentration (IC50) was 730 nM.
